Results on 7 molecules are retold here after US8410302B2, “Methoxyimino compounds and fungicide composition comprising same” (Kyung Nong Corporation, priority 2007, dated 2013).

Experiment [1] has as its system Pyricularia oryzae Carvara KA301. The experiment is described as follows: whole plant or invertebrate. The class given is in vivo. Conditions: for pest or weed control at 2 ppm / pest or weed control at 10 ppm / pest or weed control at 50 ppm / pest or weed control at 100 ppm: Pyricularia oryzae, read-out: RCB control value (C.V.); for RCB control value (C.V.): rice blast.

In another experiment the test system is Phytophthora infestans. The experiment in a line: whole plant or invertebrate. It counts as in vivo. To be noted: for pest or weed control at 50 ppm / pest or weed control at 100 ppm / pest or weed control at 2 ppm / pest or weed control at 10 ppm: Phytophthora infestans, in Solanum lycopersicum, read-out: TLB control value (C.V.); for TLB control value (C.V.): tomato late blight.

Another experiment has as its system Puccinia recondita. The experiment is described as follows: Fungicidal activity against wheat leaf rust (WLR) disease, control value. It counts as in vivo. Conditions: for pest or weed control at 100 ppm / pest or weed control at 2 ppm / pest or weed control at 10 ppm / pest or weed control at 50 ppm: read-out: WLR control value (C.V.).
The next experiment deals with Erysiphae graminis. The experiment in a line: Fungicidal activity against barley powdery mildew (BPM) disease, control value. Conditions: for pest or weed control at 100 ppm / pest or weed control at 2 ppm / pest or weed control at 10 ppm / pest or weed control at 50 ppm: 168 h, read-out: BPM control value (C.V.). The class given is in vivo.
Another experiment has as its system Botrytis cinerae. The experiment in a line: Fungicidal activity against cucumber gray mold rot (CGM) disease, control value. It counts as in vivo. Conditions: 100 ppm; for pest or weed control at 100 ppm: Botrytis, read-out: CGM control value (C.V.).
Another experiment relates to Rhizoctonia solani AG-1. The experiment in a line: Fungicidal activity against rice sheath blight (RSB) disease, control value. To be noted: for pest or weed control at 100 ppm / pest or weed control at 2 ppm / pest or weed control at 10 ppm / pest or weed control at 50 ppm: Rhizoctonia solani, AG1, in Oryza sativa, read-out: RSB control value (C.V.); for RSB control value (C.V.): rice sheath blight.

Where [2] appears, read: Hordeum vulgare, 100 ppm, barley powdery mildew.

Read-outs that look alike come from different tables or passages of the source.

On to `CO/N=C(/C(=O)OC)c1ccccc1COc1cccc(C=C(Br)Br)c1` [Example 5, methyl-(E)-2-(2-((3-(2,2-dibromovinyl)phenoxy)methyl)phenyl)-2-methoxyiminoacetate], for which the pest or weed control at 2 ppm in experiment [1] amounted to 90%. Besides, in experiment [1], the pest or weed control at 10 ppm is 97%. Also, the pest or weed control at 50 ppm worked out at 100% in experiment [1] and 55% with Phytophthora infestans. Further, the pest or weed control at 100 ppm in experiment [1] worked out at 100%; in the experiment with Phytophthora infestans it was 93%; in the experiment on Puccinia recondita (100 ppm, wheat leaf rust), 92%; in the experiment on Erysiphae graminis (setting [2]), 87%; in the experiment with Botrytis cinerae (cucumber gray mold rot) it was 34%; with Rhizoctonia solani AG-1, 32%.

For `CNC(=O)/C(=N/OC)c1ccccc1COc1c(OC)ccc(C=C(Cl)Cl)c1Br` [Example 52], the “RCB control value (C.V.)” value came to 70% in experiment [1] (2 ppm), 100% in experiment [1] (10 ppm), 100% in experiment [1] (50 ppm) and 100% in experiment [1] (100 ppm). For the same molecule, the “TLB control value (C.V.)” value in the experiment on Phytophthora infestans (2 ppm) is on record as 95%; with Phytophthora infestans (10 ppm), 100%; in the experiment with Phytophthora infestans (50 ppm) it was 100%; in the experiment on Phytophthora infestans (100 ppm), 100%. Besides, the “WLR control value (C.V.)” value in the experiment with Puccinia recondita (2 ppm, wheat leaf rust) came out at 100%; in the experiment on Puccinia recondita (10 ppm, wheat leaf rust) it was 100%; in the experiment with Puccinia recondita (50 ppm, wheat leaf rust), 100%; in the experiment on Puccinia recondita (100 ppm, wheat leaf rust), 100%. Moreover, the “BPM control value (C.V.)” value in the experiment with Erysiphae graminis (2 ppm, barley powdery mildew) is listed as 99%; with Erysiphae graminis (10 ppm, barley powdery mildew) it was 100%; with Erysiphae graminis (50 ppm, barley powdery mildew), 100%; in the experiment with Erysiphae graminis (100 ppm, barley powdery mildew), 100%. Besides, the “CGM control value (C.V.)” value with Botrytis cinerae (cucumber gray mold rot) amounted to 45%. Besides, the “RSB control value (C.V.)” value was 95% in the experiment on Rhizoctonia solani AG-1 (2 ppm), 100% in the experiment on Rhizoctonia solani AG-1 (10 ppm), 100% with Rhizoctonia solani AG-1 (50 ppm) and 100% in the experiment on Rhizoctonia solani AG-1 (100 ppm).

In the case of `CNC(=O)/C(=N/OC)c1ccccc1COc1cc(C=C(Br)Br)ccc1OC` [Example 72, (E)-2-(2-((5-(2,2-dibromovinyl)-2-methoxyphenoxy)methyl)phenyl)-2-methoxyimino-N-methylacetamide], the pest or weed control at 2 ppm amounted to 80% in experiment [1]; 70% in the experiment with Phytophthora infestans; 97% in the experiment on Puccinia recondita (Puccinia recondita, 2 ppm); 98% in the experiment on Erysiphae graminis (2 ppm); 75% in the experiment with Rhizoctonia solani AG-1. Besides, the pest or weed control at 10 ppm worked out at 99% in experiment [1]; 90% in the experiment on Phytophthora infestans; 100% in the experiment on Puccinia recondita (Puccinia recondita, 10 ppm); 100% in the experiment with Erysiphae graminis (10 ppm); 98% with Rhizoctonia solani AG-1. For the same molecule, the pest or weed control at 50 ppm in experiment [1] is 100%; with Phytophthora infestans, 100%; with Puccinia recondita (Puccinia recondita, 50 ppm), 100%; in the experiment with Erysiphae graminis (50 ppm) it was 100%; in the experiment on Rhizoctonia solani AG-1 it was 100%. For the same molecule, the pest or weed control at 100 ppm was 100% in experiment [1]; 100% in the experiment with Phytophthora infestans; 100% with Puccinia recondita (Puccinia recondita, 100 ppm); 100% in the experiment on Erysiphae graminis (100 ppm); 79% in the experiment with Botrytis cinerae; 100% in the experiment on Rhizoctonia solani AG-1.

Take `CNC(=O)/C(=N/OC)c1ccccc1COc1cccc(C=C(Cl)Br)c1` [Example 16, (2E)-2-(2-((3-(2-bromo-2-chlorovinyl)phenoxy)methyl)phenyl)-2-methoxyimino-N-methylacetamide]: the pest or weed control at 2 ppm came to 100% in experiment [1]; 93% with Phytophthora infestans; 100% in the experiment with Puccinia recondita (2 ppm, wheat leaf rust); 100% with Erysiphae graminis (Hordeum vulgare, 2 ppm, barley powdery mildew); 95% in the experiment with Rhizoctonia solani AG-1. Further, the pest or weed control at 10 ppm in experiment [1] turned out to be 100%; in the experiment on Phytophthora infestans, 95%; in the experiment with Puccinia recondita (10 ppm, wheat leaf rust), 100%; in the experiment on Erysiphae graminis (Hordeum vulgare, 10 ppm, barley powdery mildew), 100%; in the experiment with Rhizoctonia solani AG-1, 98%. For the same molecule, the pest or weed control at 50 ppm was found to be 100% in experiment [1]; 100% in the experiment with Phytophthora infestans; 100% in the experiment on Puccinia recondita (50 ppm, wheat leaf rust); 100% in the experiment with Erysiphae graminis (Hordeum vulgare, 50 ppm, barley powdery mildew); 100% with Rhizoctonia solani AG-1. Further, the pest or weed control at 100 ppm was 100% in experiment [1]; 100% with Phytophthora infestans; 100% in the experiment on Puccinia recondita (100 ppm, wheat leaf rust); 100% in the experiment on Erysiphae graminis (setting [2]); 65% with Botrytis cinerae (cucumber gray mold rot); 100% in the experiment on Rhizoctonia solani AG-1.

Turning to `CO/N=C(/C(=O)OC)c1ccccc1COc1cc(C=C(Br)Br)ccc1OC` [Example 71, methyl-(E)-2-(2-((5-(2,2-dibromovinyl)-2-methoxyphenoxy)methyl)phenyl)-2-methoxyiminoacetate], the pest or weed control at 2 ppm turned out to be 30% in experiment [1]; 70% in the experiment on Phytophthora infestans; 95% in the experiment with Puccinia recondita (Puccinia recondita, 2 ppm); 95% with Erysiphae graminis (2 ppm); 65% with Rhizoctonia solani AG-1. Also, the pest or weed control at 10 ppm in experiment [1] came out at 90%; in the experiment with Phytophthora infestans, 90%; with Puccinia recondita (Puccinia recondita, 10 ppm), 100%; in the experiment on Erysiphae graminis (10 ppm) it was 100%; with Rhizoctonia solani AG-1, 98%. Further, the pest or weed control at 50 ppm in experiment [1] stood at 100%; in the experiment with Phytophthora infestans it was 98%; in the experiment with Puccinia recondita (Puccinia recondita, 50 ppm), 100%; with Erysiphae graminis (50 ppm), 100%; with Rhizoctonia solani AG-1, 100%. The pest or weed control at 100 ppm in experiment [1] amounted to 100%; with Phytophthora infestans, 100%; in the experiment with Puccinia recondita (Puccinia recondita, 100 ppm), 100%; with Erysiphae graminis (100 ppm) it was 100%; in the experiment on Botrytis cinerae, 65%; with Rhizoctonia solani AG-1, 100%.

With `CNC(=O)/C(=N/OC)c1ccccc1COc1ccc(C=C(Cl)Cl)cc1Br` [Example 54, (E)-2-(2-((2-bromo-4-(2,2-dichlorovinyl)phenoxy)methyl)phenyl)-2-methoxyimino-N-methylacetamide], the pest or weed control at 2 ppm amounted to 30% in experiment [1]; 93% in the experiment on Phytophthora infestans; 100% with Puccinia recondita (Puccinia recondita, 2 ppm); 100% in the experiment on Erysiphae graminis (2 ppm); 90% in the experiment on Rhizoctonia solani AG-1. For the same molecule, the pest or weed control at 10 ppm in experiment [1] was 90%; in the experiment on Phytophthora infestans it was 95%; in the experiment with Puccinia recondita (Puccinia recondita, 10 ppm) it was 100%; in the experiment on Erysiphae graminis (10 ppm), 100%; in the experiment with Rhizoctonia solani AG-1, 98%. Besides, the pest or weed control at 50 ppm in experiment [1] was found to be 100%; in the experiment with Phytophthora infestans, 100%; with Puccinia recondita (Puccinia recondita, 50 ppm) it was 100%; in the experiment with Erysiphae graminis (50 ppm), 100%; in the experiment with Rhizoctonia solani AG-1, 100%. The pest or weed control at 100 ppm in experiment [1] was found to be 100%; in the experiment with Phytophthora infestans, 100%; with Puccinia recondita (Puccinia recondita, 100 ppm) it was 100%; with Erysiphae graminis (100 ppm) it was 100%; in the experiment on Botrytis cinerae, 65%; in the experiment with Rhizoctonia solani AG-1, 100%.

Consider `CNC(=O)/C(=N/OC)c1ccccc1CON=C(C)c1cccc(C=C(F)Cl)c1` [Example 32, (E)-2-[[[[[2-[3-(2-chloro-2-fluorovinyl)phenyl](1-methyl)methylidene]amino]oxy]methyl]phenyl]-2-methoxyimino-N-methylacetamide], for which the “RCB control value (C.V.)” value in experiment [1] (50 ppm) amounted to 90%; in experiment [1] (100 ppm), 97%. In addition, the “TLB control value (C.V.)” value with Phytophthora infestans (50 ppm) is given as 55%; in the experiment on Phytophthora infestans (100 ppm), 93%. The “WLR control value (C.V.)” value in the experiment on Puccinia recondita (100 ppm, wheat leaf rust) was determined as 82%. Further, in the experiment with Erysiphae graminis (100 ppm, barley powdery mildew), the “BPM control value (C.V.)” value came to 80%. In the experiment with Botrytis cinerae (cucumber gray mold rot), the “CGM control value (C.V.)” value is recorded as 34%. In addition, the “RSB control value (C.V.)” value with Rhizoctonia solani AG-1 (100 ppm) worked out at 65%.
